Results published in ChEMBL document CHEMBL2150982, “Synthesis and SAR of 1-hydroxy-1H-benzo[d]imidazol-2(3H)-ones as Inhibitors of D-Amino Acid Oxidase” (ACS Med Chem Lett, 2012).

Columns and labels:
D-amino-acid oxidase [1] = target: D-amino-acid oxidase (Homo sapiens, UniProt P14920); assay: Inhibition of human recombinant DAAO expressed in HEK293 cells using D-serine as substrate after 20 mins by horseradish peroxidase-coupled assay
D-amino-acid oxidase [2] = target: D-amino-acid oxidase (Sus scrofa, UniProt P00371); assay: Inhibition of pig DAAO using D-serine as substrate after 20 mins by horseradish peroxidase-coupled assay
Sequence of D-amino-acid oxidase (Sus scrofa, UniProt P00371) (P00371 whole entry): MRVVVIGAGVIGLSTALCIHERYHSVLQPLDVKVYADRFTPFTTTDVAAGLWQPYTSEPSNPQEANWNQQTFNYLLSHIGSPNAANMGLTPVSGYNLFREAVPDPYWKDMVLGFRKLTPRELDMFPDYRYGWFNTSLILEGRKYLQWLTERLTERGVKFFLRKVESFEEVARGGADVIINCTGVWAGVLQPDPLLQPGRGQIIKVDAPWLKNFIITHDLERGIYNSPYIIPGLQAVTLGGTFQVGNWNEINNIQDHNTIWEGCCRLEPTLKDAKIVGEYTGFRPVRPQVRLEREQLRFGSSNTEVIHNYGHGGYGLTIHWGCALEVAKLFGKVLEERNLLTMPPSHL

Liver [3] = assay: (§1) Metabolic stability in mouse liver microsomes assessed as compound remaining at 5 uM after 1 hr by LC/MS/MS analysis in presence of NADPH; assay type: ADME, Microsome; conditions: microsomes, 1 h, 5 µM
Liver [4] = assay: Metabolic stability in mouse liver microsomes assessed as compound remaining at 5 uM after 1 hr by LC/MS/MS analysis in presence of UDPGA; assay type: ADME, Microsome
Plasma = assay: (§2) Metabolic stability in mouse plasma assessed as compound remaining at 5 uM after 1 hr by LC/MS/MS analysis; assay type: ADME, cell-free; conditions: 1 h, 5 µM
Mus musculus [5] = assay: Pharmaco-enhancing activity in CD1 mouse assessed as increase in D-serine level in plasma at 30 mg/kg, po relative to control; assay type: ADME, organism-based; parameters: dose 30 mg/kg, route oral; conditions: in vivo
[6] = Metabolic stability in mouse liver microsomes assessed as compound remaining at 5 uM after 1 hr by LC/MS/MS analysis; assay type: ADME, Microsome; conditions: read-out: Stability
Mus musculus [7] = assay: Pharmaco-enhancing activity in CD1 mouse assessed as increase in D-serine level in plasma at 30 mg/kg, po measured at 30 mins relative to control; assay type: ADME, organism-based; parameters: dose 30 mg/kg, route oral; conditions: in vivo, 0.5 h
Mus musculus [8] = assay: Pharmaco-enhancing activity in CD1 mouse assessed as increase in D-serine level in plasma at 30 mg/kg, po measured up to 2 hrs relative to control; assay type: ADME, organism-based; parameters: dose 30 mg/kg, route oral; conditions: in vivo
[9] = as §1; assay type: ADME, Microsome; conditions: liver microsomes, read-out: Stability
[10] = as §2; assay type: ADME, cell-free; conditions: read-out: Stability

Sequence of D-amino-acid oxidase (Homo sapiens, UniProt P14920) (P14920 whole entry): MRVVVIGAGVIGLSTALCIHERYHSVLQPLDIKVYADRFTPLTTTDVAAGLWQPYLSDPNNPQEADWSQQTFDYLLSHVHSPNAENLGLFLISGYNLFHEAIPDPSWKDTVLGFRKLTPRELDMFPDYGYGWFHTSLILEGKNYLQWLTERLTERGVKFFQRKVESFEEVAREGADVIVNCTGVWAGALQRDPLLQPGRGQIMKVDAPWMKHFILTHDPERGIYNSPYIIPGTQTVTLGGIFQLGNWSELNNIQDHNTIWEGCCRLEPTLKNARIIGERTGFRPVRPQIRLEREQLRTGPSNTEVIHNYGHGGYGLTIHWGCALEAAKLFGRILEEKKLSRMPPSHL

Row | Structure (SMILES) | IC50 (D-amino-acid oxidase [1]) [µM] | IC50 (D-amino-acid oxidase [2]) [µM] | further results
1 | O=c1[nH]c2cccnc2n1O | 30 | – | –
2 | Oc1nc2ccccc2[nH]1 | > 100 | – | –
3 | Nn1c(=O)[nH]c2ccccc21 | > 100 | – | –
4 | COn1c(=O)[nH]c2ccccc21 | > 100 | – | –
5 | Cn1c(=O)n(O)c2ccccc21 | > 100 | – | –
6 | O=C1Nc2ccccc2C1O (stereo unspecified) | > 100 | – | –
7 | O=c1[nH]c2ncccc2n1O | 1 | – | –
8 | O=c1[nH]c2ccncc2n1O | 70 | – | –
9 | O=c1[nH]c2ccccc2n1O | 0.6 | 1 | –
10 | O=c1[nH]c2c(F)cccc2n1O | 0.1 | 0.5 | –
11 | Cc1cccc2c1[nH]c(=O)n2O | 0.2 | 0.4 | –
12 | CCc1cccc2c1[nH]c(=O)n2O | 80 | 20 | –
13 | COc1cccc2c1[nH]c(=O)n2O | 0.1 | 0.4 | Stability (Liver [3]): 60%; Stability (Liver [4]): Unstable; Stability (Plasma): 90%; Activity (Mus musculus [5]): Not Active; remaining at 1 h, 5 µM [6]: 100%
14 | O=c1[nH]c2c(Cc3ccccc3)cccc2n1O | 10 | 50 | –
15 | CCOc1cccc2c1[nH]c(=O)n2O | 50 | 50 | –
16 | CC(C)c1cccc2c1[nH]c(=O)n2O | 20 | 10 | –
17 | CCCc1cccc2c1[nH]c(=O)n2O | 20 | 30 | –
18 | CCC(C)c1cccc2c1[nH]c(=O)n2O (stereo unspecified) | > 100 | 40 | –
19 | Cc1ccc2c([nH]c(=O)n2O)c1C | 20 | 1 | –

Row | Structure (SMILES) | IC50 (D-amino-acid oxidase [1]) [µM] | IC50 (D-amino-acid oxidase [2]) [µM] | further results
20 | Cc1c(F)ccc2c1[nH]c(=O)n2O | 0.07 | 0.7 | –
21 | O=c1[nH]c2c3c(ccc2n1O)CCO3 | 0.8 | 0.2 | –
22 | Cc1cc(C)c2[nH]c(=O)n(O)c2c1 | 20 | 4 | –
23 | O=c1[nH]c2c(F)cc(F)cc2n1O | 0.08 | 0.4 | Activity (Mus musculus [7]): Active; Activity (Mus musculus [8]): Active; remaining at 1 h, 5 µM [9]: 100%; Stability (Liver [4]): 0.6%; remaining at 1 h, 5 µM [10]: 100%; remaining at 1 h, 5 µM [6]: 100%
24 | O=c1[nH]c2cc(F)ccc2n1O | 0.9 | 1 | –
25 | Cc1ccc2c(c1)[nH]c(=O)n2O | 4 | 4 | –
26 | O=c1[nH]c2cc(F)c(F)cc2n1O | 70 | 30 | –
27 | Cc1cc2[nH]c(=O)n(O)c2cc1F | 2 | 1 | –
28 | O=c1[nH]c2cc3c(cc2n1O)CCC3 | 30 | 10 | –
29 | O=c1[nH]c2ccc(F)cc2n1O | 0.4 | 0.6 | –
30 | O=c1[nH]c2ccc(Cl)cc2n1O | 9 | 2 | –
31 | Cc1ccc2[nH]c(=O)n(O)c2c1 | 30 | 7 | –
32 | O=c1[nH]c2ccc(F)c(F)c2n1O | 8 | 20 | –
33 | O=c1[nH]c2ccc3c(c2n1O)CCC3 | > 100 | > 100 | –
34 | Cc1c(F)ccc2[nH]c(=O)n(O)c12 | > 100 | > 100 | –
35 | O=c1[nH]c2cccc(F)c2n1O | 3 | 20 | –
36 | Cc1cccc2[nH]c(=O)n(O)c12 | 40 | > 100 | –
37 | O=C1Cc2ccccc2N1O | > 100 | – | –
